Several values for one entry are separate records, joined by “and”; a condition that tells them apart may be missing. Equal values may be shown once.
System: 324938-238-R-J1-PDC complex spheroid growth, % test/control
Assay: Anticancer human tumor 324938-238-R-J1-PDC patient-derived bladder carcinoma cell line growth inhibition [AhR]
Conditions: for viability, T/C: stronger effect = lower value; active = viability on the fitted dose curve at most 10% of control; inactive = the rest
Procedure, shortened: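 Complex tumor spheroids co-cultured with HUVEC and human MSC stroma; AhR antagonists tested in combination with standard-of-care and investigational agents. Top concentration at or near clinical Cmax (else 10 microM), half-log dilutions; growth expressed as percent test/control.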

[1] = curve of first compound, second compound 0.1 µM
[2] = curve of first compound, second compound 0.316 µM
[3] = curve of first compound, second compound 1 µM
[4] = curve of first compound, second compound 3.16 µM
[5] = curve of first compound, second compound 10 µM
[6] = second compound 0.1 µM, first compound 0.00949 µM
[7] = second compound 0.1 µM, first compound 0.03 µM
[8] = second compound 0.1 µM, first compound 0.0949 µM
[9] = second compound 0.1 µM, first compound 0.3 µM
[10] = second compound 0.316 µM, first compound 0.00949 µM
[11] = second compound 0.316 µM, first compound 0.03 µM
[12] = second compound 0.316 µM, first compound 0.0949 µM
[13] = second compound 0.316 µM, first compound 0.3 µM
[14] = second compound 1 µM, first compound 0.00949 µM
[15] = second compound 1 µM, first compound 0.03 µM
[16] = second compound 1 µM, first compound 0.0949 µM
[17] = second compound 1 µM, first compound 0.3 µM
[18] = second compound 3.16 µM, first compound 0.00949 µM
[19] = second compound 3.16 µM, first compound 0.03 µM
[20] = second compound 3.16 µM, first compound 0.0949 µM
[21] = second compound 3.16 µM, first compound 0.3 µM
[22] = second compound 10 µM, first compound 0.00949 µM
[23] = second compound 10 µM, first compound 0.03 µM
[24] = second compound 10 µM, first compound 0.0949 µM
[25] = second compound 10 µM, first compound 0.3 µM
[26] = second compound 0.1 µM, first compound 0.0316 µM
[27] = second compound 0.1 µM, first compound 0.1 µM
[28] = second compound 0.316 µM, first compound 0.0316 µM
[29] = second compound 0.316 µM, first compound 0.1 µM
[30] = second compound 1 µM, first compound 0.0316 µM
[31] = second compound 1 µM, first compound 0.1 µM
[32] = second compound 3.16 µM, first compound 0.0316 µM
[33] = second compound 3.16 µM, first compound 0.1 µM
[34] = second compound 10 µM, first compound 0.0316 µM
[35] = second compound 10 µM, first compound 0.1 µM
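Note: spheroids exposed to agents for seven days before viability read.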

O=C(C=Cn1cnc(-c2cc(C(F)(F)F)cc(C(F)(F)F)c2)n1)NNc1cnccn1 + Cc1ccccc1N=Nc1ccc(NC(=O)c2ccnn2C)c(C)c1
172 nM: IC50 [5]
144 nM: IC50 [4]
173 nM: IC50 [1]
178 nM: IC50 [3]
171 nM: IC50 [2]
inactive: viability, T/C [6] 91.4% | viability, T/C [7] 95.5% | viability, T/C [8] 62.7% | viability, T/C [9] 35.8% | viability, T/C (second compound 0.1 µM, first compound 0.949 µM) 19.1% | viability, T/C (second compound 0.1 µM, first compound 3 µM) 8.4% | viability, T/C [10] 90.4% | viability, T/C [11] 90.6% | viability, T/C [12] 67.8% | viability, T/C [13] 32.1% | viability, T/C (second compound 0.316 µM, first compound 0.949 µM) 19.9% | viability, T/C (second compound 0.316 µM, first compound 3 µM) 11.9% | viability, T/C [14] 86.4% | viability, T/C [15] 79.8% | viability, T/C [16] 65.6% | viability, T/C [17] 37.1% | viability, T/C (second compound 1 µM, first compound 0.949 µM) 18.6% | viability, T/C (second compound 1 µM, first compound 3 µM) 10.7% | viability, T/C [18] 84.7% | viability, T/C [19] 72% | viability, T/C [20] 58.2% | viability, T/C [21] 37.5% | viability, T/C (second compound 3.16 µM, first compound 0.949 µM) 23.4% | viability, T/C (second compound 3.16 µM, first compound 3 µM) 16.3% | viability, T/C [22] 78.4% | viability, T/C [23] 78.7% | viability, T/C [24] 62.5% | viability, T/C [25] 37.2% | viability, T/C (second compound 10 µM, first compound 0.949 µM) 26.7% | viability, T/C (second compound 10 µM, first compound 3 µM) 18.6%

CC[C@@]1(O)C(=O)OCc2c1cc1n(c2=O)Cc2cc3c(CN(C)C)c(O)ccc3nc2-1 + Cc1ccccc1N=Nc1ccc(NC(=O)c2ccnn2C)c(C)c1
17 nM: IC50 [4]
20.7 nM: IC50 [2]
19.6 nM: IC50 [1]
18.5 nM: IC50 [3]
inactive: viability, T/C (second compound 0.1 µM, first compound 0.000316 µM) 102% | viability, T/C (second compound 0.1 µM, first compound 0.001 µM) 107% | viability, T/C (second compound 0.1 µM, first compound 0.00316 µM) 88.9% | viability, T/C (second compound 0.1 µM, first compound 0.01 µM) 74.6% | viability, T/C [26] 32.8% | viability, T/C [27] 16.2% | viability, T/C (second compound 0.316 µM, first compound 0.000316 µM) 91.9% | viability, T/C (second compound 0.316 µM, first compound 0.001 µM) 101% | viability, T/C (second compound 0.316 µM, first compound 0.00316 µM) 94.8% | viability, T/C (second compound 0.316 µM, first compound 0.01 µM) 70.7% | viability, T/C [28] 38.1% | viability, T/C [29] 17.4% | viability, T/C (second compound 1 µM, first compound 0.000316 µM) 86.8% | viability, T/C (second compound 1 µM, first compound 0.001 µM) 98.5% | viability, T/C (second compound 1 µM, first compound 0.00316 µM) 86.6% | viability, T/C (second compound 1 µM, first compound 0.01 µM) 66% | viability, T/C [30] 36% | viability, T/C [31] 15.7% | viability, T/C (second compound 3.16 µM, first compound 0.000316 µM) 86.2% | viability, T/C (second compound 3.16 µM, first compound 0.001 µM) 86.3% | viability, T/C (second compound 3.16 µM, first compound 0.00316 µM) 87% | viability, T/C (second compound 3.16 µM, first compound 0.01 µM) 61.9% | viability, T/C [32] 34.7% | viability, T/C [33] 15.6% | viability, T/C (second compound 10 µM, first compound 0.000316 µM) 83.9% | viability, T/C (second compound 10 µM, first compound 0.001 µM) 88.3% | viability, T/C (second compound 10 µM, first compound 0.00316 µM) 73.6% | viability, T/C (second compound 10 µM, first compound 0.01 µM) 63.9% | viability, T/C [34] 41.3% | viability, T/C [35] 18.7%
20 nM: IC50 [5]

Nc1ncn(C2CC(O)C(CO)S2)c(=O)n1 (configuration not stated) + Cc1cncc(-c2nc(NCCc3c[nH]c4ccccc34)c3ncn(C(C)C)c3n2)c1
inactive: viability, T/C (second compound 0.1 µM, first compound 0.000949 µM) 122% | viability, T/C (second compound 0.1 µM, first compound 0.003 µM) 113% | viability, T/C [6] 122% | viability, T/C [7] 95.6% | viability, T/C [8] 118% | viability, T/C [9] 126% | viability, T/C (second compound 0.316 µM, first compound 0.000949 µM) 113% | viability, T/C (second compound 0.316 µM, first compound 0.003 µM) 102% | viability, T/C [10] 114% | viability, T/C [11] 99% | viability, T/C [12] 129% | viability, T/C [13] 130% | viability, T/C (second compound 1 µM, first compound 0.000949 µM) 92.1% | viability, T/C (second compound 1 µM, first compound 0.003 µM) 134% | viability, T/C [14] 103% | viability, T/C [15] 111% | viability, T/C [16] 131% | viability, T/C [17] 126% | viability, T/C (second compound 3.16 µM, first compound 0.000949 µM) 113% | viability, T/C (second compound 3.16 µM, first compound 0.003 µM) 99.5% | viability, T/C [18] 130% | viability, T/C [19] 98.2% | viability, T/C [20] 94.9% | viability, T/C [21] 120% | viability, T/C (second compound 10 µM, first compound 0.000949 µM) 12.2% | viability, T/C (second compound 10 µM, first compound 0.003 µM) 16.9% | viability, T/C [22] 9.06% | viability, T/C [23] 13.4% | viability, T/C [24] 11.2% | viability, T/C [25] 10.7%
> 300 nM: IC50 [1] | IC50 [2] | IC50 [3] | IC50 [4]
< 0.949 nM: IC50 [5]

NS(=O)(=O)OCC1CC(n2ccc3c(NC4CCc5ccccc54)ncnc32)CC1O (configuration not stated)
inactive: viability, T/C (compound 0.0316 µM) 120% and 104% and 97.8% | viability, T/C (compound 0.1 µM) 79.3% and 98% and 80.5% | viability, T/C (compound 0.316 µM) 97.1% and 99.1% and 65.3% | viability, T/C (compound 1 µM) 64.7% and 67.5% and 40.5% | viability, T/C (compound 3.16 µM) 30.8% and 30.9% and 26.9% | viability, T/C (compound 10 µM) 25.3% and 31.1% and 29.9%
1860 nM and 1750 nM and 616 nM: IC50 (curve of compound)

COc1cc(C2c3cc4c(cc3C(OC3OC5COC(C)OC5C(O)C3O)C3COC(=O)C23)OCO4)cc(OC)c1O (configuration not stated) + Cc1cncc(-c2nc(NCCc3c[nH]c4ccccc34)c3ncn(C(C)C)c3n2)c1
< 31.6 nM: IC50 [5]
> 10000 nM: IC50 [1] | IC50 [2] | IC50 [3] | IC50 [4]
inactive: viability, T/C [26] 104% | viability, T/C [27] 113% | viability, T/C (second compound 0.1 µM, first compound 0.316 µM) 96.8% | viability, T/C (second compound 0.1 µM, first compound 1 µM) 126% | viability, T/C (second compound 0.1 µM, first compound 3.16 µM) 106% | viability, T/C (second compound 0.1 µM, first compound 10 µM) 123% | viability, T/C [28] 109% | viability, T/C [29] 128% | viability, T/C (second compound 0.316 µM, first compound 0.316 µM) 109% | viability, T/C (second compound 0.316 µM, first compound 1 µM) 87.2% | viability, T/C (second compound 0.316 µM, first compound 3.16 µM) 95.1% | viability, T/C (second compound 0.316 µM, first compound 10 µM) 87.8% | viability, T/C [30] 126% | viability, T/C [31] 102% | viability, T/C (second compound 1 µM, first compound 0.316 µM) 84.9% | viability, T/C (second compound 1 µM, first compound 1 µM) 107% | viability, T/C (second compound 1 µM, first compound 3.16 µM) 103% | viability, T/C (second compound 1 µM, first compound 10 µM) 106% | viability, T/C [32] 86% | viability, T/C [33] 95.2% | viability, T/C (second compound 3.16 µM, first compound 0.316 µM) 94.2% | viability, T/C (second compound 3.16 µM, first compound 1 µM) 81.8% | viability, T/C (second compound 3.16 µM, first compound 3.16 µM) 106% | viability, T/C (second compound 3.16 µM, first compound 10 µM) 81.6%
active: viability, T/C [34] 3.73% | viability, T/C [35] 10.1% | viability, T/C (second compound 10 µM, first compound 0.316 µM) 6.66% | viability, T/C (second compound 10 µM, first compound 1 µM) 4% | viability, T/C (second compound 10 µM, first compound 3.16 µM) 6.93% | viability, T/C (second compound 10 µM, first compound 10 µM) 15%
